Experimental findings from patent publication US5801144A, “Use of a compound for the manufacture of a medicament for the treatment of HIV infection” (priority 1992, dated 1998) are described below.

Data set [1] relates to NDK strain of HIV-1. Briefly: Giant cell assay: co-cultivation of HIV-1 chronically infected Molt 4 cells with non-infected Molt 4 cells. Format: cell-based. On the procedure: Method: A clone of the leukaemia T-cell line Molt 4, which expresses a very high level of CD4, was selected. This was infected with the highly cytopathic NDK strain of HIV-1^6 and a clone which is chronically infected with the virus but which readily replicates was selected. When these HIV-infected cells w ere co-cultivated with non-infected Molt 4 cells at a ratio of 100 non-infected:1 infected cell, very large giant cells were formed within 24 hours.
(§1) The effects of serum from healthy HIV-1 infected individuals and AIDS patients on giant cell formation was also examined. In addition the level of cytotoxicity and anti-HIV-1 activity of these substances was tested in an anti-HIV assay system which has been previously described^7. This enabled us to establish the anti-viral activity and cytotoxicity in parallel and to compare it to the effects of AZT on virus inhibition and cell division.

The subject of data set [2] is HIV-2. As to the kind of experiment: Giant cell / cytopathic effect on co-cultivation of HIV-2 chronically infected cells with uninfected cells. Format: cell-based. The settings on record: co-cultivation in the presence of the drugs, within 24 hours. A general note: Damage to the host cells serves as the signal in cytopathic effect assays.
Data set [3] deals with HIV-1. As to the kind of experiment: Anti-HIV assay system (HIV-1 replication, cytotoxicity in parallel). Format: cell-based. As for the experimental part: as §1
The test system of data set [4] is non-infected Molt 4 cells. As to the kind of experiment: Growth-rate of non-infected T-cells. Format: cell-based. On the procedure:
(§2) Method: Molt 4 cells and the clone of the same cells, chronically infected with HIV-1, were seeded separately at an approximate concentration of 5×10^4 cells/ml. Five separate cultures of each of the two cell populations were seeded. […] At 24 hour intervals samples were taken for cell counting. Feeding with or without the corresponding chemical was done after the fourth day. AZT was also used in parallel.

For data set [5], the system named is Molt 4 cells chronically infected with HIV-1. Briefly: Growth-rate of chronically infected T-cells. Format: cell-based. On the procedure: as §2
The test system of data set [6] is CD4. Briefly: CD4 expression on non-infected cells (flow cytometry). Format: cell-based. Particulars: 1 and 4 μg/ml, 3 days. On the procedure: (§3) Each cell preparation was kept separately at a concentration of 1 and 4 μg/ml of each drug for 3 days. Infected and uninfected cells were suspended at a concentration of 10^6 /ml in phosphate buffered saline (PBS) containing 0.1% sodium azide. Triplicate aliquots of 100 μl were incubated separately with 20 μl Leu-3a (FITC) (Ortho (Becton Dickinson UK Ltd) or with 10 μl OKT4a (FITC) Diagnostic Systems). After 20 min at 22° C. the cells were washed twice with PBS and resuspended in 0.51% paraformaldehyde/PBS (Sigma). The preparations were fixed overnight at 4° C. and subsequently analysed by flow cytometry (FACScan, Becton Dickinson UK Ltd). The median channel fluorescence was recorded for each sample.
A general note: Flow cytometry measures light scatter and fluorescence of single cells or particles in a stream.

The test system of data set [7] is CD4. Briefly: CD4 expression on HIV-1 chronically infected cells (flow cytometry). Format: cell-based. The settings on record: 1 and 4 μg/ml, 3 days. On the procedure:
as §3

Data set [8] has as its system HIV-1. The settings on record: drug-containing medium replaced with growth medium alone, one week. As for the experimental part:
Method: Culture fluid was collected from:
1. chronically infected cells grown in growth medium;
3. chronically infected cells grown in 10 μg/ml of FK506 and for 1 week after removal of compound;
Each culture was titrated at serial ten-fold dilutions. Each dilution was used to infect Molt 4 cells in duplicate. The end point was recorded after 10 days.

Entries after “also recorded” stand apart in the source; their conditions may differ. Like-named read-outs stand apart in the source and are kept apart here.

Consider `C=CC[C@@H]1/C=C(\C)C[C@H](C)C[C@H](OC)[C@H]2O[C@@](O)(C(=O)C(=O)N3CCCC[C@H]3C(=O)O[C@H](/C(C)=C/[C@@H]3CC[C@@H](O)[C@H](OC)C3)[C@H](C)[C@@H](O)CC1=O)[C@H](C)C[C@@H]2OC` [FK506, 16-Allyl-1, 14-dihydroxy-12-[2-(4-hydroxy-3-methoxycyclohexyl)-1-methylvinyl]-23,25-dimethoxy-13,19,21,27-tetramethyl-11,28-dioxa-4-azatricyclo-[22,3,1,0^4,9]octacos-18-ene-2,3,10,16-tetrone], for which, in data set [1] (HIV-1, co-cultivation in the presence of the drugs, within 24 hours), the “delay of cytopathic effect / giant cell formation (anti-HIV-1 activity)” value is given as “delay of the cytopathic effect; also recorded: delay in the formation of giant cells”. Besides, the “giant cell formation after drug pre-treatment of infected cells” value in data set [1] (chronically infected cells cultured one week with drug, washed, co-cultivated without drug) is given as “a few small giant cells could be seen during the first 24 hours”. Moreover, the “onset of cytopathic effects, in particular giant cell formation” value in data set [1] (chronically infected cells grown with drug for five days and then washed) is “inhibition of and a delay in the onset of cytopathic effects”. Also, the giant cell formation result in data set [1] (co-cultured in the presence of 10 μg/ml, examined after 24 hours) is on record as “only a few small giant cells”. In data set [2], the “delay of cytopathic effect / giant cell formation (anti-HIV-2 activity)” value is reported as “delay of the cytopathic effect; also recorded: delay in the formation of giant cells”. Moreover, in data set [3] (at 1 μg), the “HIV-1 replication at 1 μg” value was “only a partial decrease”. The “antiviral activity at non-toxic concentrations” value in data set [3] (non-toxic concentrations) is given as “marginal antiviral activity”. Moreover, the “inhibition of HIV-1 replication (comparison with AZT)” value in data set [3] (various concentrations, FIG. 1) is given as “far lower than that of AZT”. In addition, in data set [4], the “cell division of uninfected cells at 4 μg/ml” value is on record as “did not appear to slow cell division”; the “growth of uninfected cells, first five days” value is reported as “did not affect the growth of uninfected cells”; the “number of uninfected cells after day five at 10 μg/ml” value is on record as “only a marginal increase in the number of cells”. Moreover, the “effect on growth / replication of HIV-1 chronically infected cells” value in data set [5] is on record as “inhibited the replication; also recorded: inhibit the growth of the chronically infected cells”. In addition, in data set [5] (4 μg/ml), the “cell division of chronically infected cells at 4 μg/ml” value is on record as “significant reduction in cell division”. In addition, the “number of chronically infected cells at 10 μg/ml” value in data set [5] (10 μg/ml, after a week in culture) is given as “only a marginal increase in the number of cells”. In data set [5] (listed as FK), the “effect on growth / replication of HIV-1 chronically infected cells” value is given as “significantly inhibited the replication”. Besides, the “CD4 expression on uninfected Molt 4 cells” value in data set [6] is on record as “expressed a high level of CD4”. For the same molecule, in data set [7], the “CD4 expression on chronically HIV-1 infected Molt 4 cells” value is “does not seem to be affected”. In addition, in data set [8], the “production of infectious HIV-1 after drug removal” value was “increase in the production of infectious HIV-1 to the levels which preceded the drug treatment”.
